Among the data in DBAASP are MIC values, retold here.

Structures are written as SMILES. In brackets after ≈: the same amount, converted by molar mass.

Some test systems named below: Candida albicans; Escherichia coli MG1655; Escherichia coli JW0013; Leuconostoc lactis; Bacillus cereus; Listeria innocua; Micrococcus luteus; Streptococcus uberis.
Common to all, as to experiment: ≥ marks a high value that may be exact or a test limit, other limits are often not marked, values filed in µg/mL are converted to µM
In assay [1] the test system is Pseudomonas aeruginosa PAO1.
For assay [2], the system named is Staphylococcus aureus ATCC 25923.
Assay [3] has as its system Escherichia coli ATCC 25726.
Assay [4] has as its system Staphylococcus aureus ATCC 29213.
For assay [5], the system named is Staphylococcus epidermidis.
In assay [6] the test system is Klebsiella pneumoniae ATCC 700603.
Assay [7] has as its system Pseudomonas aeruginosa ATCC 10145.
The test system of assay [8] is Candida albicans ATCC 90028.
Assay [9] deals with Escherichia coli ATCC 25922.
Assay [10] has as its system Staphylococcus aureus NCTC 8325.

A word on the MIC: it is the smallest concentration in the dilution series that meets the test's criterion for growth inhibition. Low readings indicate a more susceptible organism, high ones a less susceptible organism. With `CSCC[C@H](NC(=O)[C@@H](NC(=O)[C@@H](N)CCCCN)C(C)C)C(=O)N[C@@H](CCCN=C(N)N)C(=O)N[C@@H](CCC(=O)O)C(=O)N[C@H](C(=O)N[C@@H](CC(C)C)C(=O)NCC(=O)N[C@@H](Cc1ccc(O)cc1)C(=O)N[C@@H](CCC(=O)O)C(=O)N[C@@H](CCCN=C(N)N)C(=O)N[C@@H](CC(N)=O)C(=O)N[C@@H](CO)C(=O)N[C@@H](Cc1ccc(O)cc1)C(=O)N[C@@H](CCCCN)C(=O)N[C@@H](CCCCN)C(=O)N[C@@H](Cc1ccccc1)C(=O)N[C@@H](Cc1ccccc1)C(=O)N[C@@H](CC(C)C)C(=O)N[C@@H](CCCN=C(N)N)C(N)=O)C(C)C` [KVMREVLGYERNSYKKFFLR], the MIC is 128 µM (≈ 328 µg/mL) against Candida albicans, at least 128 µM with Escherichia coli MG1655, above 128 µM in assay [1] and above 128 µM in [2].
On to `CC(C)C[C@H](NC(=O)[C@H](CC(C)C)NC(=O)[C@H](CC(N)=O)NC(=O)[C@H](C)NC(=O)CNC(=O)[C@H](Cc1ccccc1)NC(=O)[C@H](CCCCN)NC(=O)[C@H](CC(C)C)NC(=O)[C@H](C)NC(=O)[C@H](CCCCN)NC(=O)CNC(=O)[C@H](CC(C)C)NC(=O)[C@@H](NC(=O)[C@H](CO)NC(=O)CNC(=O)[C@H](Cc1ccccc1)NC(=O)CN)C(C)C)C(N)=O` [GFGSVLGKALKFGANLL], for which the MIC was at least 50 µM in [3] and 12.5 µM (≈ 21.1 µg/mL) in assay [2].
In the assay with Escherichia coli JW0013, `CC[C@H](C)[C@H](NC(=O)[C@H](CCCN=C(N)N)NC(=O)[C@H](CCCN=C(N)N)NC(=O)[C@@H]1CCCN1C(=O)[C@@H]1CCCN1C(=O)[C@H](CCCN=C(N)N)NC(=O)[C@@H]1CCCN1C(=O)[C@H](CCCN=C(N)N)NC(=O)[C@@H]1CCCN1C(=O)[C@H](CC(C)C)NC(=O)[C@H](Cc1ccc(O)cc1)NC(=O)CNC(=O)[C@@H]1CCCN1C(=O)[C@H](CCCCN)NC(=O)[C@H](CC(=O)O)NC(=O)[C@@H](N)C(C)C)C(=O)N[C@@H](Cc1ccc(O)cc1)C(=O)N[C@@H](CC(N)=O)C(=O)N[C@@H](CCCN=C(N)N)C(N)=O` [VDKPGYLPRPRPPRRIYNR] came in with a minimal inhibitory concentration (MIC) of 2.04 µM (≈ 4.8 µg/mL).
Regarding `CC[C@H](C)[C@H](N)C(=O)N[C@H](C(=O)N[C@@H](CCC(=O)O)C(=O)N[C@@H](CCCCN)C(=O)N[C@@H](CC(C)C)C(=O)N[C@H](C(=O)N[C@@H](CC(N)=O)C(=O)N[C@H](C(=O)N[C@@H](C)C(=O)N[C@@H](CC(C)C)C(=O)NCC(=O)N[C@@H](CC(C)C)C(=O)N[C@@H](CC(C)C)C(=O)N[C@@H](CO)C(=O)NCC(=O)N[C@@H](CC(C)C)C(N)=O)[C@@H](C)O)C(C)C)[C@@H](C)CC` [IIEKLVNTALGLLSGL], the MIC with Leuconostoc lactis was 25 µM (≈ 41.3 µg/mL).
Consider `CC[C@H](C)[C@H](NC(=O)CNC(=O)[C@H](Cc1ccccc1)NC(=O)[C@H](CC(C)C)NC(=O)CN)C(=O)N[C@@H](CC(C)C)C(=O)NCC(=O)N[C@@H](CO)C(=O)N[C@H](C(=O)N[C@@H](C)C(=O)N[C@@H](CCCCN)C(=O)N[C@@H](Cc1cnc[nH]1)C(=O)N[C@H](C(=O)N[C@@H](CC(C)C)C(=O)N1CCC[C@H]1C(=O)N[C@@H](Cc1cnc[nH]1)C(=O)N[C@H](C(=O)N[C@H](C(=O)N1CCC[C@H]1C(=O)N[C@H](C(=O)N[C@H](C(=O)N[C@@H](C)C(=O)N[C@@H](CCC(=O)O)C(=O)N[C@@H](Cc1cnc[nH]1)C(=O)N[C@@H](CC(C)C)C(N)=O)C(C)C)C(C)C)[C@@H](C)CC)C(C)C)C(C)C)C(C)C` [GLFGILGSVAKHVLPHVIPVVAEHL], for which the minimum inhibitory concentration (MIC) in the assay on Bacillus cereus is at least 38.4 µM; against Leuconostoc lactis it was 9.6 µM (≈ 25 µg/mL); in the assay on Listeria innocua it was 9.6 µM (≈ 25 µg/mL); in the assay on Micrococcus luteus, 7.68 µM (≈ 20 µg/mL); in [2], 19.2 µM (≈ 50 µg/mL); in assay [4], 9.6 µM (≈ 25 µg/mL). Besides, the MIC in [5] is 9.6 µM (≈ 25 µg/mL); with Streptococcus uberis, 19.2 µM (≈ 50 µg/mL).
Turning to `CC[C@H](C)[C@H](NC(=O)[C@H](C)NC(=O)CN)C(=O)N[C@@H](CCCCN)C(=O)N[C@@H](CC(=O)O)C(=O)N[C@@H](C)C(=O)N[C@@H](CC(C)C)C(=O)N[C@@H](CCCCN)C(=O)NCC(=O)N[C@@H](C)C(=O)N[C@@H](C)C(=O)N[C@@H](CCCCN)C(=O)N[C@H](C(=O)N[C@H](C(=O)N[C@@H](C)C(=O)N[C@H](C(=O)N[C@@H](CCC(=O)O)C(=O)N[C@@H](CC(C)C)C(=O)N[C@@H](CC(C)C)C(=O)N[C@@H](CCCCN)C(=O)N[C@@H](CCCCN)C(=O)N[C@@H](C)C(=O)N[C@@H](CCC(N)=O)C(=O)N[C@H]1CSSC[C@@H](C(=O)O)NC(=O)[C@H]([C@@H](C)O)NC(=O)[C@H](CCCCN)NC(=O)[C@H](CCC(=O)O)NC(=O)[C@H](CC(C)C)NC(=O)[C@H](CCCCN)NC1=O)C(C)C)C(C)C)[C@@H](C)O` [GAIKDALKGAAKTVAVELLKKAQCKLEKTC], the MIC in assay [3] and in assay [2] was 20 µM (≈ 62.5 µg/mL) in each case.
For the compound `CC[C@H](C)[C@H](NC(=O)[C@H](CCC(=O)O)NC(=O)[C@H](CO)NC(=O)[C@H](C)NC(=O)[C@H](CC(C)C)NC(=O)[C@H](C)NC(=O)[C@H](CCC(N)=O)NC(=O)CNC(=O)[C@H](Cc1ccccc1)NC(=O)[C@H](CCCCN)NC(=O)[C@H](CCCCN)NC(=O)[C@H](C)NC(=O)[C@H](CO)NC(=O)[C@H](Cc1cnc[nH]1)NC(=O)[C@H](CC(C)C)NC(=O)[C@H](Cc1ccccc1)NC(=O)[C@H](CCCCN)NC(=O)CNC(=O)[C@@H](NC(=O)CN)C(C)C)C(=O)N[C@@H](CCSC)C(=O)N[C@@H](CCCCN)C(=O)N[C@@H](CO)C(=O)O` [GVGKFLHSAKKFGQALASEIMKS], the MIC in [3] was at least 100 µM; in assay [2], above 100 µM.
On to `CC(C)C[C@H](NC(=O)[C@H](Cc1ccc(O)cc1)NC(=O)[C@H](Cc1cnc[nH]1)NC(=O)[C@H](CCCCN)NC(=O)[C@H](CC(C)C)NC(=O)[C@H](C)NC(=O)[C@H](CC(C)C)NC(=O)[C@H](CCCCN)NC(=O)CNC(=O)[C@@H](NC(=O)[C@@H](NC(=O)[C@H](CCCCN)NC(=O)[C@@H](NC(=O)[C@H](CCC(=O)O)NC(=O)[C@H](C)NC(=O)[C@H](CCCCN)NC(=O)[C@H](CCCCN)NC(=O)[C@H](CC(C)C)NC(=O)[C@H](CC(C)C)NC(=O)[C@@H](NC(=O)[C@H](CCCN=C(N)N)NC(=O)[C@H](Cc1c[nH]c2ccccc12)NC(=O)CN)[C@@H](C)O)C(C)C)[C@@H](C)O)C(C)C)C(=O)O` [GWRTLLKKAEVKTVGKLALKHYL], for which the MIC against Escherichia coli MG1655 turned out to be 8.3 µM (≈ 22 µg/mL); in [6], 4.15 µM (≈ 11 µg/mL); in [7] it was 0.25 µM (≈ 0.663 µg/mL); in assay [2], 4.15 µM (≈ 11 µg/mL).
In the case of `CC[C@H](C)[C@@H]1NC(=O)[C@H](C)NC(=O)[C@@H](NC(=O)[C@H](Cc2ccccc2)NC(=O)[C@@H](NC(=O)[C@H](CCCCN)NC(=O)[C@@H]2CCCN2C(=O)[C@H](CC(C)C)NC(=O)[C@H](Cc2ccccc2)NC(=O)[C@H](CCCCN)NC(=O)[C@H](C)NC(=O)[C@H](C)NC(=O)[C@@H](NC(=O)CNC(=O)[C@H](C)NC(=O)[C@@H](NC(=O)[C@@H](NC(=O)[C@@H]2CCCN2C(=O)[C@H](CC(C)C)NC(=O)[C@@H](N)Cc2ccccc2)C(C)C)[C@@H](C)CC)C(C)C)[C@@H](C)CC)CSSC[C@@H](C(=O)O)NC(=O)[C@H](CCCCN)NC(=O)[C@H](CCCCN)NC(=O)[C@H]([C@@H](C)O)NC1=O` [FLPVIAGVAAKFLPKIFCAITKKC], the MIC in assay [8] was found to be 8 µM (≈ 20.6 µg/mL); in [9], 7 µM (≈ 18 µg/mL); in [10] it was 4 µM (≈ 10.3 µg/mL).
